Like-named read-outs stand apart in the source and are kept apart here.
Tests used:
T-cell leukemia (Jurkat) = assay: MTT cell viability assay (anti-proliferation activity); type: cell-based, human; settings: 48 h incubation, read-out: concentration at which 50% cell growth inhibition occurs (IC50)
Protocol: (§1) The colorectal cancer (HT-29), lung carcinoma (A549) and T-cell leukemia (Jurkat) cell lines were maintained as monolayer cultures in RPMI-1640 supplemented with 100 µg/ml streptomycin, 100 U/ml penicillin and 10% (v/v) foetal bovine serum (FBS) (all from Sigma, Ireland). Human glioma (SNB-19), human pancreatic carcinoma (MiaPaCa) and breast carcinoma (MDA-MB-231) cells were obtained from the American Type Culture Collection (ATCC) and maintained in Dulbecco's Modified Eagle's Medium (DMEM) supplemented with 100 µg/ml streptomycin, 100 U/ml penicillin, 2 mM L-glutamine, and 10% (v/v) FBS. The melanoma cell line (WM793) was originally isolated from a superficial spreading melanoma and maintained in DMEM, supplemented with 10% (v/v) FBS, 50 µg/ml gentamicin and 4 µg/ml insulin (Sigma, Ireland). HeLa cells were obtained from the ATCC and maintained in DMEM supplemented with 100 µg/ml streptomycin, 100 U/ml penicillin, 2 mM L-glutamine, 0.1 mM non-essential amino acids (NEAA, Sigma), and 10% (v/v) FBS. Human umbilical vein endothelial cells (HUVEC) cells were obtained from Cambrex and maintained in an endothelial cell growth medium (Lonza, Dublin Ireland). Human Dermal fibroblast (HDF) cells were obtained from the European Collection of Cell Culture (ECACC) and were maintained in DMEM supplemented with 100 µg/ml streptomycin, 100 U/ml penicillin, 2 mM L-glutamine, and 10% (v/v) FBS. All cells were grown in humidified atmosphere of 95% air and 5% CO2 at 37°C.
(§2) Reduction of MTT [(3-(4,5-dimethylthiazol-2-yl)-2,5-diphenyltetrazolium bromide] by cells was assessed colorimetrically as previously described. Assays were carried out after 48 h of cell incubation (72 h for combinational studies) in the media containing test compounds at concentrations ranging from 200 µM to 0.2 µM depending upon compounds being tested.

HeLa cells = assay: as above; type: cell-based, human
Protocol: as §1, §2

Human glioma (SNB-19) = assay: as above; type: cell-based; settings: SNB-19, 48 h incubation; read-out: concentration at which 50% cell growth inhibition occurs (IC50)
Protocol: as §1, §2

[1] = tested on: human pancreatic carcinoma (MiaPaCa); assay: as above; type: cell-based; settings: 48 h incubation, read-out: concentration at which 50% cell growth inhibition occurs (IC50)
Protocol: as §1, §2

MDA-MB-231 = settings: cited from earlier work
Jurkat = settings: cited from earlier work
[2] = tested on: breast carcinoma (MDA-MB-231) cells; assay: MTT cell viability assay (anti-proliferation activity); type: cell-based, human; settings: 48 h incubation, read-out: concentration at which 50% cell growth inhibition occurs (IC50)
Protocol: as §1, §2

[3] = tested on: colorectal cancer (HT-29); assay: as above; type: cell-based, human; settings: HT-29, 48 h incubation; read-out: concentration at which 50% cell growth inhibition occurs (IC50)
Protocol: as §1, §2

[4] = tested on: melanoma cell line (WM793); assay: as above; type: cell-based, human; settings: WM793, 48 h incubation; read-out: concentration at which 50% cell growth inhibition occurs (IC50)
Protocol: as §1, §2

[5] = tested on: Human umbilical vein endothelial cells (HUVEC); assay: as above; type: cell-based; settings: 48 h incubation, read-out: concentration at which 50% cell growth inhibition occurs (IC50)
Protocol: as §1, §2

MiaPaCa = assay: Western blot analysis of apoptosis markers; type: cell-based, human; settings: Fig. 5B
Protocol: (§3) Cells were lyzed and protein levels determined using the bicinchoninic acid method (Pierce, Rockford, IL). Protein samples were separated by SDS-PAGE under reducing conditions. Resolved proteins were transferred to methanol-activated polyvinylidenedifluoride (PVDF) membrane (Millipore, Bedford, MA, USA and blocked in 5% (w/v) bovine serum albumin for 1 h at room temperature. Primary antibody was applied to membranes overnight at 4°C (anti-cleaved Caspase 3, 8, 9 and poly ADP-ribose polymerase (PARP), (1:1000 dilution; Cell Signaling Technology, Danvers, USA). Chemiluminescent signal was detected using the Fluorchem FC2 Imaging System (Alpha Innotech, Switzerland). Membranes were stripped and reprobed with anti-β-actin antibodies (1:1000 dilution; Santa-Cruz Biotechnology, Santa Cruz, USA) so as to provide loading control.

HeLa = assay: Western blot analysis of apoptosis markers; type: cell-based, human; settings: Fig. 5A
Protocol: as §3

lung carcinoma (A549) = assay: MTT cell viability assay (anti-proliferation activity); type: cell-based, human; settings: A549, 48 h incubation; read-out: concentration at which 50% cell growth inhibition occurs (IC50)
Protocol: as §1, §2

[6] = tested on: Human Dermal fibroblast (HDF) cells; assay: as above; type: cell-based; settings: 48 h incubation, read-out: concentration at which 50% cell growth inhibition occurs (IC50)
Protocol: as §1, §2

[7] = HeLa, 48 h incubation, read-out: concentration at which 50% cell growth inhibition occurs (IC50)

Substance | IC50 (T-cell leukemia (Jurkat)) [µM] | IC50 (HeLa cells; [7]) [µM] | IC50 (Human glioma (SNB-19)) [µM] | IC50 [1] [µM] | cytotoxic activity (MDA-MB-231) | cytotoxic activity (Jurkat) | IC50 [2] [µM] | IC50 [3] [µM] | IC50 [4] [µM] | IC50 [5] [µM] | Caspase 8 (MiaPaCa) | apoptotic cell death (activation of caspase 3, 9 and the caspase substrate PARP) (MiaPaCa) | Caspase 8 (HeLa) | apoptotic cell death (activation of caspase 3, 9 and the caspase substrate PARP) (HeLa) | IC50 (lung carcinoma (A549)) [µM] | IC50 (HeLa cells; HeLa cells, concentration used in uptake study of biotinylated peptides (Fig. 3A), read-out: approximately the IC50 value) [µM] | IC50 [6] [µM]
C10-kwklfkklpkflhlakkf [C10DP18L] | 3.8 ± 0.4 | 3 ± 0.1 | 4.3 ± 0.9 | 5 ± 1.5 |  |  |  |  |  |  |  |  |  |  |  |  | 
KWKLFKKIPKFLHLAKKF [P18] |  |  |  |  | displays cytotoxic activity | displays cytotoxic activity |  |  |  |  |  |  |  |  |  |  | 
Kwklfkkipkflhlakkf (SEQ ID NO: 2) [DP18] |  | 18 ± 0.4 | 18.6 ± 1.5 | 18.9 ± 1.5 |  |  | 18.6 ± 0.8 | 17.5 ± 0.5 | 22.8 ± 0.8 | 100 ± 9 |  |  |  |  |  |  | 
Kwklfkklpkflhlakkf (SEQ ID NO: 1) [DP18L] | 4.2 ± 0.6 | 12.7 ± 1.2 | 27.3 ± 1.8 | 13.9 ± 0.6 |  |  | 13.4 ± 2.4 | 18.3 ± 0.9 | 18.7 ± 3 | 140 ± 18 | not detected at significant levels | induces apoptotic cell death | not detected at significant levels | induces apoptotic cell death |  |  | 
R10-kwklfkklpkflhlakkf [R10DP18L] | 3 ± 0.5 | 2.8 ± 0.3 |  |  |  |  | 3.1 ± 0.8 |  |  | 9.2 ± 0.8 |  |  |  |  | 2.5 ± 0.7 | ~2.4 | 7.9 ± 0.4
